Reference: patent US20100143999A1, “PROCESS FOR FERMENTIVE PREPARATION OF ALCOHOLS AND RECOVERY OF PRODUCT” (E.I. DU PONT DE NEMOURS AND COMPANY, priority 2008, published 2010)

Experiments:
[1] = system: Saccharomyces cerevisiae (W1362 20A); experiment: Glucose Uptake Index of S. cerevisiae culture with 5% (v/v) ionic liquid; format: cell-based; conditions: YPD medium, 30° C., 16 hours after addition
Experimental: After 24 hours the test tube was removed and stored at 4° C.

[2] = system: Saccharomyces cerevisiae (W1362 20A); experiment: Scale-up fermentation (25 mL broth) with 5 volume percent ionic liquid, HPLC over five hours; format: cell-based; conditions: five hour time span, FIG. 2
Experimental: Cultures were again prepared using the same growth conditions as described above except that the total broth volume was 25 mL. The selected ionic liquids were added to a container of each broth in an amount of 5 volume percent. In these experiments, small samples were withdrawn from the broth for HPLC analysis periodically over a five hour time span to get a better idea of the extent of metabolic activity after ionic liquid addition as well as to provide information on glucose consumption and product formation. […] The calculation of GUI was made as described above, and amount of ethanol produced was taken directly from the HPLC data.

[3] = Extraction of ethanol from an aqueous solution by ionic liquid; format: physicochemical; conditions: 3 mL aqueous solution about 31 g/L ethanol, 150 microliters (5 vol %) ionic liquid, overnight equilibration
Experimental: (§1) Ethanol and isobutanol concentration in the solution was measured using HPLC as described above following thorough mixing and overnight equilibration of the contents of the vial.

[4] = Extraction of isobutanol from an aqueous solution by ionic liquid; format: physicochemical; conditions: 3 mL aqueous solution about 31 g/L isobutanol, 150 microliters (5 vol %) ionic liquid, overnight equilibration
Experimental: as §1

Row | Compound | GUI of Example (Glucose Utilization Index in the presence of ionic liquid phase) [1] | GUI of Example (Glucose Utilization Index in the presence of ionic liquid phase) ([1]; listed as 14) | ethanol production [2] | glucose uptake [2] | Ethanol (concentration in the solution after extraction) [3] [mM] | Isobutanol (concentration in the solution after extraction) [4] [mM]
1 | 1-butyl-3-methylimidazolium 1,1,2,3,3,3-hexafluoropropanesulfonate [Example 11] | 30.1 | 31.9 | – | – | – | –
2 | 3-methyl-1-propylpyridinium bis(trifluoromethylsulfonyl)imide [Example 12] | 97.1 | – | – | – | – | –
3 | 1-butyl-3-methylpyrrolidinium bis(trifluoromethylsulfonyl)imide [Example 15] | – | – | remained robust | remained robust | – | –
4 | 1-butyl-3-methylimidazolium 1,1,2-trifluoro-2-(trifluoromethoxy)ethanesulfonate [Example 10] | 37.1 | – | – | – | – | –
5 | 1-hexyl-3-methylimidazolium bis(trifluoromethylsulfonyl)imide [Example 9] | 89.5 | – | remained robust | remained robust | 678 | 388
6 | 1-butyl-3-methylimidazolium 2-(1,2,2,2-tetrafluoroethoxy)-1,1,2,2-tetrafluoroethanesulfonate [Example 13] | 42.8 | – | – | – | – | –
7 | CCCCn1cc[n+](C)c1.F[P-](F)(F)(F)(F)F [Example 7, 1-butyl-3-methylimidazolium hexafluorophosphate] | 48.2 | – | – | – | – | –
8 | 1-butyl-3-methylimidazolium 1,1,2-trifluoro-2-(perfluoroethoxy)ethanesulfonate [Example 4] | 22.0 | – | – | – | – | –
9 | CCCCCCn1cc[n+](C)c1.FC(F)(F)C(F)(F)[P-](F)(F)(F)(C(F)(F)C(F)(F)F)C(F)(F)C(F)(F)F [Example 1, 1-hexyl-3-methylimidazolium tris(pentafluoroethyl)trifluorophosphate] | 99.7 | – | remained robust | remained robust | 680 | 404
10 | 1-ethyl-3-methylimidazolium bis(trifluoromethylsulfonyl)imide [Example 6] | 76.8 | – | remained robust | remained robust | 670 | 389
11 | tetradecyl(tri-n-hexyl)phosphonium 1,1,2-trifluoro-2-(perfluoroethoxy)ethanesulfonate [Example 2] | 78.4 | – | – | – | – | –
